Calls of active or inactive are those of the source.
How the values were obtained:
[1] = A Cell Based Secondary Assay To Explore Cytotoxicity of Compounds that Sensitize Mycobacterium Tuberculosis to Beta-Lactam Antibiotics.; assay type: functional
[2] = biological target: Cytochrome P450 2C19 (Homo sapiens, UniProt P33261); test: Cytochrome panel assay with activity outcomes. Panel member name: p450-cyp2c19 Compounds with AC50 equal or less than 10 uM are considered active; assay type: functional; conditions: read-out: AC50
[3] = growth suppression of PTEN-null colon cells, dose response, cell-based, HCT116 PTEN knockout (AID 1047); assay type: functional;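 also: HCT116 colon tumor cells with PTEN knocked out; cells exposed to compound for 60 hours before readout; potency for loss of cell viability measured by luminescence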
[4] = growth suppression of beta-catenin-knockout colon cells, dose response, cell-based, HCT116, human colon tumor (AID 1045); assay type: functional;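 also: HCT116 colon tumor cells with beta catenin knocked out; cells exposed to compound for 60 hours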
[5] = biological target: Eukaryotic translation initiation factor 4E (Mus musculus, UniProt P63073); test: eIF4E–eIF4G protein interaction inhibitors, dose response, biochemical, TR-FRET (AID 855); assay type: functional;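 also: potency for disrupting eIF4E binding to eIF4GI seen as loss of FRET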
[6] = cytotoxicity in HEK-293T cells, dose response, cytotoxicity control for TCR NF-kB inhibitor project, luminescence, T-cell screen hits (AID 489026); assay type: functional, cell-based;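 also: cells exposed to compound about 14 hours before the viability readout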
[7] = system: P388/ADR; test: cells; assay type: functional; conditions: Mus musculus
[8] = system: SN12K1; test: cells; assay type: functional; conditions: Homo sapiens
[9] = biological target: T1, Sentrin-specific protease 7 (Homo sapiens, UniProt Q9BQF6); assay type: functional;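 also: Luminescence-based dose-response confirmation of ultra-high-throughput screening hits, measuring inhibition of SENP7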
T1 sequence (Q9BQF6 whole entry): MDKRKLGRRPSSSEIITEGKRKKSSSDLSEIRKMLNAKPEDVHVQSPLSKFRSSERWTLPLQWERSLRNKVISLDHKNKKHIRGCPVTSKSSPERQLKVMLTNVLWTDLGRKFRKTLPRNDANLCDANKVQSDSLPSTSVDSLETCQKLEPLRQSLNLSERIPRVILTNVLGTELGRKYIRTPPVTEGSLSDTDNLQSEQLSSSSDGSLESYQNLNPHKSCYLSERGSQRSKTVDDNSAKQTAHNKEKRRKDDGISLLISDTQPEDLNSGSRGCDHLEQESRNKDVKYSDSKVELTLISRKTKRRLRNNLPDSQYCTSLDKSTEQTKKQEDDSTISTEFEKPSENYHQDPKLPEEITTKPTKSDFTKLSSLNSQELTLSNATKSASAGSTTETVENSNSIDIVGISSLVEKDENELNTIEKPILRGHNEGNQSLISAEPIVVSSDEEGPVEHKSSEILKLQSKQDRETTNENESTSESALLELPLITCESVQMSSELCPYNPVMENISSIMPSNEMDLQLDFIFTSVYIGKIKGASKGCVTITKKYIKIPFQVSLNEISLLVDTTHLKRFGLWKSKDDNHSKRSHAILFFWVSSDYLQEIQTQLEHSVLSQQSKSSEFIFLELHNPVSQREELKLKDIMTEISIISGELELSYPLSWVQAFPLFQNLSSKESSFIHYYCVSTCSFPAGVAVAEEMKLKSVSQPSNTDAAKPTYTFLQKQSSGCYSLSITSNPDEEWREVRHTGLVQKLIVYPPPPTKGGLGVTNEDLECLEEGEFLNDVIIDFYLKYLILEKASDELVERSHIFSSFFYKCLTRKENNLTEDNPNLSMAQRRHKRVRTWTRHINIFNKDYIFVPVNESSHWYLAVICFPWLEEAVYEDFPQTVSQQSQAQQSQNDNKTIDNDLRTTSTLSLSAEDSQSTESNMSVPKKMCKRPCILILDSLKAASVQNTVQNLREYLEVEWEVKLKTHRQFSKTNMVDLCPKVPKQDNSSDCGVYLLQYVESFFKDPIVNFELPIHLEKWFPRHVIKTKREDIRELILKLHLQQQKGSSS

[10] = biological target: T2, Sentrin-specific protease 6 (Homo sapiens, UniProt Q9GZR1); assay type: functional;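 also: Luminescence-based dose-response confirmatory assay of SENP6 inhibition, following up an ultra-high-throughput screen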
T2 sequence (Q9GZR1 whole entry): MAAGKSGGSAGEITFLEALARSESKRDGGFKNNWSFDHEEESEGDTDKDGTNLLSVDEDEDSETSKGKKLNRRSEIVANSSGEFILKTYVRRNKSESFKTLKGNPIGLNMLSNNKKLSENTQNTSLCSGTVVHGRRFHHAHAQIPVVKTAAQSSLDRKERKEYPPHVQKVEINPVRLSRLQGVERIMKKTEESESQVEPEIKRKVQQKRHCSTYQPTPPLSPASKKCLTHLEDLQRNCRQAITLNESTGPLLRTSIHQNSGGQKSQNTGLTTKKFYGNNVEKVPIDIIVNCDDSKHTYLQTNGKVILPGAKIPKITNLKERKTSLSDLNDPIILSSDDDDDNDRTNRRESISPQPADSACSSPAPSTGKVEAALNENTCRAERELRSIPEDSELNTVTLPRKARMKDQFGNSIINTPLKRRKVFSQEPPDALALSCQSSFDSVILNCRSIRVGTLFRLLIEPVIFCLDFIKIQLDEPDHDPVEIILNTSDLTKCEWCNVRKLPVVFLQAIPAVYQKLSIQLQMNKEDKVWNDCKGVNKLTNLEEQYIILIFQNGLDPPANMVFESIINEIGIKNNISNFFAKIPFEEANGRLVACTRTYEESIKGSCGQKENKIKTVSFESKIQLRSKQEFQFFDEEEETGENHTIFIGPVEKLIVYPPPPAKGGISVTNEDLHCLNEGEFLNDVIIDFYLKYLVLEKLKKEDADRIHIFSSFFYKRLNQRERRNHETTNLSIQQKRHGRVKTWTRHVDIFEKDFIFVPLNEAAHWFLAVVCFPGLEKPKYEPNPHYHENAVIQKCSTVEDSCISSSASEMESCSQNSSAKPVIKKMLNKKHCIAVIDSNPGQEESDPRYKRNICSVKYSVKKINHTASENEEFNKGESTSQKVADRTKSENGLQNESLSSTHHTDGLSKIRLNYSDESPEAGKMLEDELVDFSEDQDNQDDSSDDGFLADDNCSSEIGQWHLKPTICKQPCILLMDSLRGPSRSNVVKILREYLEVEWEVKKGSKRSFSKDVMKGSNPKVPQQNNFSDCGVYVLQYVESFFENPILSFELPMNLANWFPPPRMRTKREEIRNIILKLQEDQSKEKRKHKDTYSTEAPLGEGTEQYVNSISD

[11] = biological target: T3, Caspase-3 (Homo sapiens, UniProt P42574); assay type: functional;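 also: Dose-response selectivity test against caspase-3 for candidate inhibitors of sentrin-specific proteases (SENPs)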
T3 sequence (P42574 whole entry): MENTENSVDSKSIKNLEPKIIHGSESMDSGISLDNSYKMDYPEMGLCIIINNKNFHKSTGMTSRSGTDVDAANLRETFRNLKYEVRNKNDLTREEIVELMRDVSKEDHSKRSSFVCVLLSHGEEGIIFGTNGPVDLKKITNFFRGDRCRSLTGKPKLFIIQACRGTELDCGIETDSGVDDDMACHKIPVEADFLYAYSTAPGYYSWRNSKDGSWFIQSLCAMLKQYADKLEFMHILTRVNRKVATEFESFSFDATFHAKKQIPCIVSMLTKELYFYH

[12] = system: Streptococcus sp. 'group A'; test: growth inhibition of control SK(-) GAS strain, dose response, counter-screen for streptokinase expression inhibitor project, luminescence, kanamycin, BacTiterGlo, confirmation (AID 1900); assay type: functional, organism-based
[13] = biological target: T4, Streptokinase A (Streptococcus pyogenes serotype M1, UniProt P10520); test: S. pyogenes streptokinase expression inhibitors, potency, dose response, plasminogen activation absorbance, OD405 (AID 1914); assay type: functional, Streptococcus pyogenes M1 GAS;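 also: secreted streptokinase activity via plasminogen activation per viability signal from cell pellet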
T4 sequence (P10520 whole entry): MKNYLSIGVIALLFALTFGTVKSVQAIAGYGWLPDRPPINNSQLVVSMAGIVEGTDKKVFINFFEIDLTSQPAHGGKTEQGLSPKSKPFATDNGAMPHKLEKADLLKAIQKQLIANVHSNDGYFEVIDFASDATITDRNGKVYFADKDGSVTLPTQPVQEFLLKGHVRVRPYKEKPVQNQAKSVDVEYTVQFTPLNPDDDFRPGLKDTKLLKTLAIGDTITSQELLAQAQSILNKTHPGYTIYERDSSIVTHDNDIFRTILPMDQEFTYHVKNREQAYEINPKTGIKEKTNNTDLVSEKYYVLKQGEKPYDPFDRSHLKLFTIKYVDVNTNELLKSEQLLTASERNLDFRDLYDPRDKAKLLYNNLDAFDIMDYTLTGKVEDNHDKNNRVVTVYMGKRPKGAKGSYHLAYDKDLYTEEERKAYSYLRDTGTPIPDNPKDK

[14] = system: Streptococcus; test: Group A Streptococcus viability loss, dose response, counter-screen for streptokinase expression inhibitor project, luminescence, BacTiterGlo (AID 1915); assay type: functional, organism-based;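 also: potency for reduction of bacterial viability or growth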
[15] = biological target: T5, Sentrin-specific protease 8 (Homo sapiens, UniProt Q96LD8); assay type: functional;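 also: luminescence read-out of SENP8 inhibition, dose-response confirmation following an ultra-high-throughput screen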
T5 sequence (Q96LD8 whole entry): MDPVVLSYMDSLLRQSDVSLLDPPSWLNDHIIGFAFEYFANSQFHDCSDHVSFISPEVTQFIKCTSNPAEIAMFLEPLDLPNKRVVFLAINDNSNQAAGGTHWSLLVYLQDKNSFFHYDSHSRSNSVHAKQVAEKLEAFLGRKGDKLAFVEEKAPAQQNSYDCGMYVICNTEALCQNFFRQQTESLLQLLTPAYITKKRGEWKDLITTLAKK

Eukaryotic translation initiation factor 4E, sequence (P63073 whole entry): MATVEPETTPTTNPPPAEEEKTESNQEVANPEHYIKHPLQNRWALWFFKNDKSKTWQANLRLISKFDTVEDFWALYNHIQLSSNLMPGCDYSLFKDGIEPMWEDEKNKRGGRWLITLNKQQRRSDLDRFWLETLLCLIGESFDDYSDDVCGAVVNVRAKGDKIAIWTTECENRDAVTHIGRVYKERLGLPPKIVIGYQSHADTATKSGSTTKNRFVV
Cytochrome P450 2C19, sequence (P33261 whole entry): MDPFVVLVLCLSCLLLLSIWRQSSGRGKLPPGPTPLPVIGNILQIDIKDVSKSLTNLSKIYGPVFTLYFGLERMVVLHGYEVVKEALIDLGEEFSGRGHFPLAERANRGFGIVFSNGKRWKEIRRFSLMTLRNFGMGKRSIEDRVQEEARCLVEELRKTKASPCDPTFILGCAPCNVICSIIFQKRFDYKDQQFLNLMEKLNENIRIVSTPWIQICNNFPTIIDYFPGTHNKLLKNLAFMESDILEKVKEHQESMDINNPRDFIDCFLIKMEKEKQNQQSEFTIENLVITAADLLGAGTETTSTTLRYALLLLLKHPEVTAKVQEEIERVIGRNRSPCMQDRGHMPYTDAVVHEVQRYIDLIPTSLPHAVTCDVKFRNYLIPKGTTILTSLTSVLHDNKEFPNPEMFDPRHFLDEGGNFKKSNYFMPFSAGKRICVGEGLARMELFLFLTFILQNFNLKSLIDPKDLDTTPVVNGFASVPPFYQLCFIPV

Cc1ccc(-n2c(SCC(=O)NCc3ccco3)nc3sc4c(c3c2=O)CC(C)(C)SC4)cc1
CC50 [1]: > 40 µM (active) | AC50 [2]: 8.91 µM (inconclusive)

COCc1nnc(NC(=O)c2ccc(S(=O)(=O)N(C)c3ccccc3)cc2)o1
CC50 [1]: 18.6 µM (active) | EC50 [3]: 20.6 µM (active) | EC50 [4]: 18.3 µM (active)

CC1CCCN(S(=O)(=O)c2ccc(C(=O)Nc3nnc(-c4ccncc4)o3)cc2)C1 (stereo unspecified)
CC50 [1]: 12.7 µM (active)

COc1ccc(C(=O)Nc2ccccc2C(=O)NC(C(=O)NCc2ccco2)C(C)C)cc1 (stereo unspecified)
CC50 [1]: 16.9 µM (active) | EC50 [3]: 4.63 µM (active) | EC50 [4]: 8.16 µM (active)

COc1ccc([C@H]2[C@H](C(C)=O)N3N=Cc4ccccc4C3C23C(=O)OC(C)(C)OC3=O)cc1 (stereo partly specified)
IC50 [5]: > 64 µM (inactive)

Cc1ccc(OCc2nnc(-c3ccccn3)[nH]2)cc1
IC50 [5]: > 64 µM (inactive)

COc1cc(C(=O)Nc2ccc3c(c2)CCN3C(C)=O)cc(OC)c1OC
IC50 [6]: > 80 µM (inactive)

C=C1C(O)C2(O)OCC34C(CC5C(C)=CC(=O)C(O)C5(C)C23)OC(=O)C(OC(=O)C/C=C(\C)CCCCC)C14 (stereo unspecified)
GI50 [7]: 0.0933 µM (active) | GI50 [8]: 0.0125 µM (active)

CN(C)c1ccc(/C=N/Nc2nc3ccccc3o2)cc1
IC50 [9]: < 1.55 µM (active) | IC50 [10]: 1.72 µM (active) | IC50 [11]: 2.05 µM (active) | EC50 [12]: > 150 µM (not active) | EC50 [13]: > 150 µM (not active) | EC50 [14]: > 150 µM (not active) | IC50 [15]: 1.74 µM (active)

— ChEMBL document CHEMBL1201862, “PubChem BioAssay data set” (2004)
